# EP4635500A1, “THERAPEUTIC AGENT FOR BACTERIAL INFECTION” (Sumitomo Pharma Co., Ltd., priority 2022, dated 2024)
# Where two headings read alike, the source gives them in different places.
# Tested on: carbapenemase-producing Enterobacteriaceae (CPE)
# Test: MIC in human urine and CAMHB at pH 5.0 to 8.0 (Example 13, Tables 29, 30)
# Settings: Klebsiella pneumoniae
smiles,measurement,setting,value
"C[C@@H](O)[C@H]1C(=O)N2C(C(=O)O)=C(S[C@@H]3CN[C@H](C(=O)N(C)C)C3)[C@H](C)[C@H]12 [MEPM, meropenem]",MIC,"ATCCBAA2342, pH 6, read-out: MICs of MEPM, K. pneumoniae ATCC BAA-2342 (KPC-3), Human urine pH6.0",8 µg/mL
same,MIC,"ATCCBAA2342, pH 7, read-out: MICs of MEPM, K. pneumoniae ATCC BAA-2342 (KPC-3), Human urine pH7.0",16 µg/mL
same,MIC,"ATCCBAA2342, pH 7.2, read-out: MICs of MEPM, K. pneumoniae ATCC BAA-2342 (KPC-3), Standard condition (CAMHB pH7.2)",16 µg/mL
same,MIC,"ATCCBAA2342, pH 8, read-out: MICs of MEPM, K. pneumoniae ATCC BAA-2342 (KPC-3), CAMHB pH8.0",16 µg/mL
same,MIC,"ATCCBAA2342, pH 8, read-out: MICs of MEPM, K. pneumoniae ATCC BAA-2342 (KPC-3), Human urine pH8.0",32 µg/mL
same,MIC,"ATCCBAA2344, pH 5, read-out: MICs of MEPM, K. pneumoniae ATCC BAA-2344 (KPC-2), CAMHB pH5.0",8 µg/mL
same,MIC,"ATCCBAA2344, pH 5, read-out: MICs of MEPM, K. pneumoniae ATCC BAA-2344 (KPC-2), Human urine pH5.0",2 µg/mL
same,MIC,"ATCCBAA2344, pH 6, read-out: MICs of MEPM, K. pneumoniae ATCC BAA-2344 (KPC-2), CAMHB pH6.0",32 µg/mL
same,MIC,"ATCCBAA2344, pH 6, read-out: MICs of MEPM, K. pneumoniae ATCC BAA-2344 (KPC-2), Human urine pH6.0",8 µg/mL
same,MIC,"ATCCBAA2344, pH 7, read-out: MICs of MEPM, K. pneumoniae ATCC BAA-2344 (KPC-2), Human urine pH7.0",32 µg/mL
same,MIC,"ATCCBAA2344, pH 7.2, read-out: MICs of MEPM, K. pneumoniae ATCC BAA-2344 (KPC-2), Standard condition (CAMHB pH7.2)",32 µg/mL
same,MIC,"ATCCBAA2344, pH 8, read-out: MICs of MEPM, K. pneumoniae ATCC BAA-2344 (KPC-2), CAMHB pH8.0",32 µg/mL
same,MIC,"ATCCBAA2344, pH 8, read-out: MICs of MEPM, K. pneumoniae ATCC BAA-2344 (KPC-2), Human urine pH8.0",32 µg/mL
same,MIC,"ATCCBAA2470, pH 5, read-out: MICs of MEPM, K. pneumoniae ATCC BAA-2470 (NDM-1), CAMHB pH5.0",0.12 µg/mL
same,MIC,"ATCCBAA2470, pH 5, read-out: MICs of MEPM, K. pneumoniae ATCC BAA-2470 (NDM-1), Human urine pH5.0",0.12 µg/mL
same,MIC,"ATCCBAA2470, pH 6, read-out: MICs of MEPM, K. pneumoniae ATCC BAA-2470 (NDM-1), CAMHB pH6.0",8 µg/mL
same,MIC,"ATCCBAA2470, pH 6, read-out: MICs of MEPM, K. pneumoniae ATCC BAA-2470 (NDM-1), Human urine pH6.0",0.12 µg/mL
same,MIC,"ATCCBAA2470, pH 7, read-out: MICs of MEPM, K. pneumoniae ATCC BAA-2470 (NDM-1), Human urine pH7.0",16 µg/mL
same,MIC,"ATCCBAA2470, pH 7.2, read-out: MICs of MEPM, K. pneumoniae ATCC BAA-2470 (NDM-1), Standard condition (CAMHB pH7.2)",16 µg/mL
same,MIC,"ATCCBAA2470, pH 8, read-out: MICs of MEPM, K. pneumoniae ATCC BAA-2470 (NDM-1), CAMHB pH8.0",64 µg/mL
same,MIC,"ATCCBAA2470, pH 8, read-out: MICs of MEPM, K. pneumoniae ATCC BAA-2470 (NDM-1), Human urine pH8.0",8 µg/mL
same,MIC,"ATCCBAA2524, pH 5, read-out: MICs of MEPM, K. pneumoniae ATCC BAA-2524 (OXA-48), CAMHB pH5.0",0.25 µg/mL
same,MIC,"ATCCBAA2524, pH 5, read-out: MICs of MEPM, K. pneumoniae ATCC BAA-2524 (OXA-48), Human urine pH5.0",0.25 µg/mL
same,MIC,"ATCCBAA2524, pH 6, read-out: MICs of MEPM, K. pneumoniae ATCC BAA-2524 (OXA-48), CAMHB pH6.0",0.25 µg/mL
same,MIC,"ATCCBAA2524, pH 6, read-out: MICs of MEPM, K. pneumoniae ATCC BAA-2524 (OXA-48), Human urine pH6.0",0.25 µg/mL
same,MIC,"ATCCBAA2524, pH 7, read-out: MICs of MEPM, K. pneumoniae ATCC BAA-2524 (OXA-48), Human urine pH7.0",0.25 µg/mL
same,MIC,"ATCCBAA2524, pH 7.2, read-out: MICs of MEPM, K. pneumoniae ATCC BAA-2524 (OXA-48), Standard condition (CAMHB pH7.2)",1 µg/mL
same,MIC,"ATCCBAA2524, pH 8, read-out: MICs of MEPM, K. pneumoniae ATCC BAA-2524 (OXA-48), CAMHB pH8.0",4 µg/mL
same,MIC,"ATCCBAA2524, pH 8, read-out: MICs of MEPM, K. pneumoniae ATCC BAA-2524 (OXA-48), Human urine pH8.0",1 µg/mL
same,MIC,"NCTC13439, pH 5, read-out: MICs of MEPM, K. pneumoniae NCTC13439 (VIM-1), CAMHB pH5.0",0.12 µg/mL
same,MIC,"NCTC13439, pH 5, read-out: MICs of MEPM, K. pneumoniae NCTC13439 (VIM-1), Human urine pH5.0",0.12 µg/mL
same,MIC,"NCTC13439, pH 6, read-out: MICs of MEPM, K. pneumoniae NCTC13439 (VIM-1), CAMHB pH6.0",1 µg/mL
same,MIC,"NCTC13439, pH 6, read-out: MICs of MEPM, K. pneumoniae NCTC13439 (VIM-1), Human urine pH6.0",0.06 µg/mL
same,MIC,"NCTC13439, pH 7, read-out: MICs of MEPM, K. pneumoniae NCTC13439 (VIM-1), Human urine pH7.0",2 µg/mL
same,MIC,"NCTC13439, pH 7.2, read-out: MICs of MEPM, K. pneumoniae NCTC13439 (VIM-1), Standard condition (CAMHB pH7.2)",4 µg/mL
same,MIC,"NCTC13439, pH 8, read-out: MICs of MEPM, K. pneumoniae NCTC13439 (VIM-1), CAMHB pH8.0",4 µg/mL
same,MIC,"NCTC13439, pH 8, read-out: MICs of MEPM, K. pneumoniae NCTC13439 (VIM-1), Human urine pH8.0",1 µg/mL
